These results are taken from ChEMBL document CHEMBL4665776, “Design, synthesis and SAR study of novel C2-pyrazolopyrimidine amides and amide isosteres as allosteric integrase inhibitors” (Bioorg Med Chem Lett, 2020).

One may read the EC50 as the concentration giving half of the maximal effect. What is called CC50 is the concentration giving 50% cytotoxicity. In general, IC50 refers to the concentration that gives 50% inhibition. A low value points to greater potency in that assay. The clearance is a measure of how efficiently the substance is removed, as volume per time. Broadly, the half-life is the time needed for the level to fall by half in the phase considered. High values mean slow loss, low ones fast loss. As a reminder, the Cmax is the highest concentration seen after dosing.

Data set [1] relates to Human immunodeficiency virus 1. The data set is described as follows: Antiviral activity against wild type HIV-1 NL4-3 in human MT2 cells assessed as inhibition of viral out growth replication in presence of 40 mg/ml human serum albumin by HIV1 infectivity assay. As to conditions: Human immunodeficiency virus 1, NL4-3, MT2. The format is functional, organism-based.
The nature of data set [2]: Cytotoxicity against human MT2 cells. Format: cell-based.
A short description of data set [3]: Displacement of [3H]2-tert-butoxy-2-(2-methyl-4-p-tolylquinolin-3-yl)acetic acid from LEDGF binding site of HIV1 integrase. Also noted: species or system Human immunodeficiency virus 1. Background: In a radioligand displacement assay an active substance lowers the binding of a labelled ligand.
In data set [4] the test system is Human immunodeficiency virus 1. Kind of data set: Antiviral activity against wild type HIV-1 NL4-3 in human MT2 cells assessed as inhibition of viral out growth replication by HIV1 infectivity assay. As to conditions: Human immunodeficiency virus 1, NL4-3, MT2. Format: functional, organism-based.
Data set [5] can be described thus: Metabolic stability in rat liver microsomes assessed as parent compound remaining at 0.5 uM incubated for 10 mins. Format: ADME, Microsome. As to conditions: read-out: Stabilty. On the technique in general: Liver microsomes are a subcellular fraction often used to study metabolism.
Data set [6] can be described thus: Volume of distribution at steady state in Sprague-Dawley rat at 1 mg/kg, iv. The format is ADME, organism-based. As to conditions: in vivo, read-out: Vdss.
The nature of data set [7]: Clearance in Sprague-Dawley rat at 1 mg/kg, iv. Format: ADME, organism-based. The note with it: in vivo.
A short description of data set [8]: Half life in Sprague-Dawley rat at 1 mg/kg, iv. As to conditions: in vivo. Format: ADME, organism-based.
Data set [9] is described as follows: Cmax in Sprague-Dawley rat at 1 mg/kg, iv. As to conditions: in vivo. Also noted: route intravenous, dose 1 mg/kg. Format: ADME, organism-based.
For data set [10], the system named is Human immunodeficiency virus 1. Kind of data set: Antiviral activity against HIV-1 NL4-3 harboring integrase A128T mutant in human MT2 cells assessed as inhibition of viral out growth replication by HIV1 infectivity assay. As to conditions: Human immunodeficiency virus 1, NL4-3, MT2. Format: functional, organism-based.

As for `Cc1nc2cc(C(=O)NCC3CCOCC3)nn2c(-c2cc(F)c3c(c2C)CCCO3)c1[C@H](OC(C)(C)C)C(=O)O`, the 50% effective concentration (EC50) was found to be 2660 nM in [1] and 608 nM in [4]. This molecule also returned a CC50 in data set [2] of over 40 µM. The molecule also showed a concentration for half-maximal inhibition (IC50) in data set [3] of 420 nM.

On to `Cc1nc2cc(C(=O)NCc3ccc(F)cc3N3CCCC3=O)nn2c(-c2cc(F)c3c(c2C)CCCO3)c1[C@H](OC(C)(C)C)C(=O)O`, for which the values for the EC50 in data set [1] and in data set [4] were 9470 nM and 2600 nM, respectively. The same molecule returned a CC50 in data set [2] of over 40 µM. In addition, the IC50 in [3] stood at 65 nM.

As for `CNC(=O)c1cc(F)ccc1CNC(=O)c1cc2nc(C)c([C@H](OC(C)(C)C)C(=O)O)c(-c3cc(F)c4c(c3C)CCCO4)n2n1`, the half-maximal effective concentration (EC50) in data set [1] is over 20000 nM; in [4], 3200 nM. In data set [2], this molecule showed a 50% cytotoxic concentration (CC50) of over 40 µM. This molecule showed a concentration for half-maximal inhibition (IC50) in [3] of 42 nM.

For the molecule `Cc1nc2cc(C(=O)NCC3CCCCC3)nn2c(-c2cc(F)c3c(c2C)CCCO3)c1[C@H](OC(C)(C)C)C(=O)O`, the EC50 was 342 nM in [1] and 12 nM in data set [4]. Moreover, the 50% cytotoxic concentration (CC50) in data set [2] is over 40 µM.

In the case of `Cc1nc2cc(C(=O)NCCN3CCOCC3)nn2c(-c2cc(F)c3c(c2C)CCCO3)c1[C@H](OC(C)(C)C)C(=O)O`, the values for the EC50 in [1] and in data set [4] were 11700 nM and 5920 nM, respectively. Also, in data set [2], the cytotoxic concentration (CC50) is over 40 µM. Further, the IC50 in data set [3] was 815 nM.

For the molecule `Cc1nc2cc(C(=O)NCc3ccc(F)c(C4CC4)c3)nn2c(-c2cc(F)c3c(c2C)CCCO3)c1[C@H](OC(C)(C)C)C(=O)O`, the EC50 stood at 361 nM in data set [1] and 14 nM in data set [4]. This molecule also yielded a cytotoxic concentration (CC50) in [2] of over 40 µM. This molecule also had a half-maximal inhibitory concentration (IC50) in data set [3] of 65 nM.

Take `Cc1nc2cc(C(=O)NCc3ccc(F)cc3O)nn2c(-c2cc(F)c3c(c2C)CCCO3)c1[C@H](OC(C)(C)C)C(=O)O`: the EC50 in [1] is 1520 nM; in data set [4], 37 nM. In data set [2], this molecule had a cytotoxic concentration (CC50) of over 40 µM. In data set [3], the IC50 turned out to be 67 nM.

As to `Cc1nc2cc(C(=O)NCCC(C)C)nn2c(-c2cc(F)c3c(c2C)CCCO3)c1[C@H](OC(C)(C)C)C(=O)O`, the figures for the concentration for a half-maximal effect (EC50) in data set [1] and in [4] were 122 nM and 18 nM, respectively. For the same molecule, the 50% cytotoxic concentration (CC50) in [2] is over 40 µM. The half-maximal inhibitory concentration (IC50) in [3] turned out to be 120 nM.

As for `Cc1nc2cc(C(=O)NCCC(C)(C)C)nn2c(-c2cc(F)c3c(c2C)CCCO3)c1[C@H](OC(C)(C)C)C(=O)O`, the remaining at 10 min, 0.5 µM in data set [5] worked out at 86%. In addition, in data set [6], the Vd came out at 0.6 L/kg. Also, the clearance in data set [7] worked out at 47 mL/min/kg. The half-life in data set [8] was 42 min. In addition, the maximum concentration (Cmax) in data set [9] is 79 nM. For the same molecule, the EC50 in [1] stood at 105 nM; in [10], 75 nM; in [4] it was 13 nM. The cytotoxic concentration (CC50) in [2] was over 40 µM. In data set [3], this molecule registered a 50% inhibitory concentration (IC50) of 84 nM.

Consider `Cc1nc2cc(-c3nc(Cc4ccc(F)cc4)no3)nn2c(-c2cc(F)c3c(c2C)CCCO3)c1[C@H](OC(C)(C)C)C(=O)O`, for which the values for the half-maximal effective concentration (EC50) in data set [1] and in [4] were 2530 nM and 28 nM, respectively. In addition, the CC50 in data set [2] was over 20 µM. This molecule also came in with a 50% inhibitory concentration (IC50) in data set [3] of 117 nM.

Turning to `Cc1nc2cc(C(=O)NCCC3CCCCC3)nn2c(-c2cc(F)c3c(c2C)CCCO3)c1[C@H](OC(C)(C)C)C(=O)O`, the EC50 came out at 143 nM in data set [1] and 60 nM in [4]. This molecule came in with a CC50 in [2] of over 40 µM. Further, in data set [3], the IC50 worked out at 63 nM.

As to `Cc1nc2cc(C(=O)NCc3ccc(F)cc3S(C)(=O)=O)nn2c(-c2cc(F)c3c(c2C)CCCO3)c1[C@H](OC(C)(C)C)C(=O)O`, the half-maximal effective concentration (EC50) in [1] was 6570 nM; in [4] it was 118 nM. Moreover, the CC50 in data set [2] was over 40 µM. This molecule also showed a concentration for half-maximal inhibition (IC50) in data set [3] of 69 nM.

With `COc1cc(F)ccc1CNC(=O)c1cc2nc(C)c([C@H](OC(C)(C)C)C(=O)O)c(-c3cc(F)c4c(c3C)CCCO4)n2n1`, the EC50 in data set [1] amounted to 347 nM; in data set [4], 53 nM. This molecule came in with a 50% cytotoxic concentration (CC50) in data set [2] of over 40 µM. In data set [3], this molecule showed an IC50 of 21 nM.

For `Cc1nc2cc(C(=O)NCc3ccc(F)cc3-n3cncn3)nn2c(-c2cc(F)c3c(c2C)CCCO3)c1[C@H](OC(C)(C)C)C(=O)O`, the half-maximal effective concentration (EC50) turned out to be 2600 nM in data set [1] and 508 nM in [4]. The molecule also showed a CC50 in [2] of over 40 µM. The molecule also displayed an IC50 in data set [3] of 21 nM.

Regarding `Cc1nc2cc(C(=O)NCc3ccc(F)cc3)nn2c(-c2cc(F)c3c(c2C)CCCO3)c1[C@H](OC(C)(C)C)C(=O)O`, the EC50 in data set [1] was 591 nM; in [4], 50 nM. For the same molecule, in [2], the half-maximal cytotoxic concentration (CC50) is over 40 µM. Further, the half-maximal inhibitory concentration (IC50) in data set [3] is 44 nM.

Turning to `Cc1nc2cc(-c3ncc(Cc4ccc(F)cc4)s3)nn2c(-c2cc(F)c3c(c2C)CCCO3)c1[C@H](OC(C)(C)C)C(=O)O`, the remaining at 10 min, 0.5 µM in [5] came to 100%. For the same molecule, the Vd in [6] stood at 3.3 L/kg. Moreover, the clearance in [7] is 53 mL/min/kg. The half-life in data set [8] is 90 min. In data set [9], the Cmax turned out to be 343 nM. Besides, the EC50 in data set [1] was determined as 34 nM; in data set [10], 59 nM; in [4], 1 nM. The molecule also displayed a cytotoxic concentration (CC50) in data set [2] of over 20 µM. The molecule further displayed an IC50 in data set [3] of 15 nM.

As for `CCCNC(=O)c1cc2nc(C)c([C@H](OC(C)(C)C)C(=O)O)c(-c3cc(F)c4c(c3C)CCCO4)n2n1`, the EC50 in data set [1] worked out at 2340 nM; in data set [4], 262 nM. The same molecule yielded a CC50 in data set [2] of over 40 µM. This molecule also yielded an IC50 in [3] of 1120 nM.

For the molecule `CCCc1cc(CNC(=O)c2cc3nc(C)c([C@H](OC(C)(C)C)C(=O)O)c(-c4cc(F)c5c(c4C)CCCO5)n3n2)ccc1F`, the concentration giving a half-maximal response (EC50) in data set [1] was found to be 247 nM; in data set [4] it was 12 nM. Besides, the 50% cytotoxic concentration (CC50) in [2] was over 20 µM. In data set [3], this molecule displayed a half-maximal inhibitory concentration (IC50) of 108 nM.

On to `COc1cc(CNC(=O)c2cc3nc(C)c([C@H](OC(C)(C)C)C(=O)O)c(-c4cc(F)c5c(c4C)CCCO5)n3n2)ccc1F`, for which the concentration for a half-maximal effect (EC50) in [1] was determined as 340 nM; in data set [4] it was 20 nM. In data set [2], this molecule yielded a CC50 of over 20 µM.

`CCc1cc(CNC(=O)c2cc3nc(C)c([C@H](OC(C)(C)C)C(=O)O)c(-c4cc(F)c5c(c4C)CCCO5)n3n2)ccc1F`: the EC50 in data set [1] stood at 325 nM; in data set [4] it was 15 nM. The same molecule had a CC50 in [2] of over 40 µM. Besides, in data set [3], the IC50 was 48 nM.

Consider `Cc1nc2cc(C(=O)NCCC3CCOCC3)nn2c(-c2cc(F)c3c(c2C)CCCO3)c1[C@H](OC(C)(C)C)C(=O)O`, for which the concentration giving a half-maximal response (EC50) in data set [1] is 1770 nM; in data set [4], 173 nM. This molecule also gave a CC50 in data set [2] of over 40 µM. This molecule also registered a half-inhibitory concentration (IC50) in data set [3] of 95 nM.

On to `Cc1cc(CNC(=O)c2cc3nc(C)c([C@H](OC(C)(C)C)C(=O)O)c(-c4cc(F)c5c(c4C)CCCO5)n3n2)ccc1F`, for which, in [5], the remaining at 10 min, 0.5 µM came to 96%. Moreover, the Vd in data set [6] was found to be 0.6 L/kg. The clearance in data set [7] was determined as 58 mL/min/kg. The half-life in [8] was 24 min. The molecule further yielded a Cmax in data set [9] of 7 nM. The concentration giving a half-maximal response (EC50) amounted to 236 nM in [1], 35 nM in data set [10] and 15 nM in data set [4]. In [2], this molecule returned a 50% cytotoxic concentration (CC50) of over 40 µM. The same molecule registered an IC50 in data set [3] of 42 nM.

`Cc1nc2cc(-c3ncc(-c4ccc(F)cc4)s3)nn2c(-c2cc(F)c3c(c2C)CCCO3)c1[C@H](OC(C)(C)C)C(=O)O`: the 50% effective concentration (EC50) in data set [1] came to 296 nM; in data set [4] it was 10 nM. Also, the CC50 in [2] is over 20 µM. For the same molecule, the concentration for half-maximal inhibition (IC50) in data set [3] was 195 nM.

For `Cc1nc2cc(-c3ncc(Cc4ccc(F)cc4)o3)nn2c(-c2cc(F)c3c(c2C)CCCO3)c1[C@H](OC(C)(C)C)C(=O)O`, the values for the EC50 in data set [1], in data set [10] and in data set [4] were 324 nM, 56 nM and 6 nM, respectively. In data set [2], this molecule yielded a CC50 of over 20 µM. This molecule also returned a half-maximal inhibitory concentration (IC50) in data set [3] of 21 nM.
